Activity calls are given as the source filed them.
What was measured:
MCF7 [1] = assay: Potentiation of etoposide induced antiproliferative activity against human MCF7 cells assessed as upregulation of ISG15 gene expression at 2.5 uM in presence of etoposide by RT-qPCR analysis; type: functional, cell-based
[2] = Toxicity in BALB/C mouse xenografted with human MDA-MB-231 cells assessed as change in heart morphology at 25 mg/kg,ip administrated daily for 11 days; type: organism-based; conditions: in vivo, 264 h, time 11 day
[3] = Toxicity in BALB/C mouse xenografted with human MCF7 cells assessed as change in spleen morphology at 50 mg/kg,ip administrated every other day for 29 days; type: organism-based; conditions: in vivo, 696 h, time 29 day
MCF7 [4] = assay: Synergistic antiproliferative activity against human MCF7 cells assessed as downregulation of FOXC1 gene expression at 2.5 uM incubated for 6 hrs in presence of fulvestrant by RT-qPCR analysis; type: functional, cell-based
MCF7 [5] = assay: Synergistic antitumor activity against human MCF7 cells xenografted in BALB/C mouse assessed as downregulation of GREB1 gene expression at 25 mg/kg,ip administrated every other day for 15 days in presence of 5 mg/kg tamoxifen oral administration by RT-qPCR analysis; type: functional, organism-based; conditions: time 15.0 day
MCF7 [6] = assay: Antitumor activity against human MCF7 cells xenografted in BALB/C mouse assessed as downregulation of N-Myc gene expression at 25 mg/kg,ip administrated every other day for 29 days by RT-qPCR analysis; type: functional, organism-based; conditions: time 29.0 day
4T1 [7] = assay: Potentiation of etoposide induced antiproliferative activity against mouse 4T1 cells assessed as upregulation of IFNalpha gene expression at 2.5 uM in presence of etoposide by RT-qPCR analysis; type: functional, cell-based
[8] = Toxicity in BALB/C mouse implanted with mouse 4T1 cells assessed as change in liver morphology at 25 mg/kg,ip administrated daily for 14 days; type: organism-based; conditions: in vivo, 336 h, time 14 day
MCF7 [9] = assay: Antitumor activity against human MCF7 cells xenografted in BALB/C mouse assessed as upregulation of IFIT1 gene expression at 50 mg/kg,ip administrated every other day for 29 days by RT-qPCR analysis; type: functional, organism-based; conditions: time 29.0 day
MCF7 [10] = assay: Synergistic antiproliferative activity against human MCF7 cells assessed as downregulation of N-Myc gene expression at 2.5 uM incubated for 6 hrs in presence of tamoxifen by RT-qPCR analysis; type: functional, cell-based
MCF7 [11] = assay: Antitumor activity against human MCF7 cells xenografted in BALB/C mouse assessed as downregulation of NRIP1 gene expression at 25 mg/kg,ip administrated every other day for 29 days by RT-qPCR analysis; type: functional, organism-based; conditions: time 29.0 day
MCF7 [12] = assay: Synergistic antiproliferative activity against human MCF7 cells assessed as downregulation of GREB1 gene expression at 2.5 uM incubated for 6 hrs in presence of tamoxifen by RT-qPCR analysis; type: functional, cell-based
4T1 [13] = assay: Antitumor activity against mouse 4T1 cells implanted in BALB/C mouse assessed as downregulation of C-Myc gene expression at 50 mg/kg,ip administrated daily for 14 days by RT-qPCR analysis; type: functional, organism-based; conditions: time 14.0 day
MCF7 [14] = assay: Synergistic antitumor activity against human MCF7 cells xenografted in BALB/C mouse assessed as reduction in tumor size at 25 mg/kg,ip administrated every other day for 15 days in presence of 5 mg/kg tamoxifen oral administration; type: functional, organism-based; conditions: time 15.0 day
MCF7 [15] = assay: Potentiation of etoposide induced antiproliferative activity against human MCF7 cells assessed as upregulation of IFNalpha gene expression at 2.5 uM in presence of etoposide by RT-qPCR analysis; type: functional, cell-based
[16] = Toxicity in BALB/C mouse implanted with mouse 4T1 cells assessed as change in body weight at 25 mg/kg,ip administrated daily for 12 days in presence of 8 mg/kg etoposide administration; type: organism-based; conditions: in vivo, 288 h, time 12 day
4T1 [17] = assay: Antitumor activity against mouse 4T1 cells implanted in BALB/C mouse assessed as downregulation of N-Myc gene expression at 25 mg/kg,ip administrated daily for 14 days by RT-qPCR analysis; type: functional, organism-based; conditions: time 14.0 day
MCF7 [18] = assay: Synergistic antiproliferative activity against human MCF7 cells assessed as inhibition of colony formation at 2.5 uM incubated for 10 days in presence of fulvestrant by crystal violet staining based analysis; type: functional, cell-based; conditions: time 10.0 day
[19] = Toxicity in BALB/C mouse implanted with mouse 4T1 cells assessed as change in heart morphology at 50 mg/kg,ip administrated daily for 14 days; type: organism-based; conditions: in vivo, 336 h, time 14 day
MCF7 [20] = assay: Synergistic antitumor activity against human MCF7 cells xenografted in BALB/C mouse assessed as reduction in tumor weight at 25 mg/kg,ip administrated every other day for 15 days in presence of 5 mg/kg tamoxifen oral administration; type: functional, organism-based; conditions: time 15.0 day
BT-474 = assay: Antiproliferative activity against human BT-474 cells assessed as reduction in cell growth incubated for 7 days by celltiter 96 aqueous one solution cell proliferation assay; conditions: BT-474, 168 h
MCF7 [21] = assay: Antitumor activity against human MCF7 cells xenografted in BALB/C mouse assessed as reduction of tumor size at 25 mg/kg,ip administrated every other day for 29 days; type: functional, organism-based; conditions: time 29.0 day
[22] = Toxicity in BALB/C mouse xenografted with human MDA-MB-231 cells assessed as change in body weight at 50 mg/kg,ip administrated daily for 11 days; type: organism-based; conditions: in vivo, 264 h, time 11 day
4T1 [23] = assay: Antitumor activity against mouse 4T1 cells implanted in BALB/C mouse assessed as downregulation of CCND1 gene expression at 25 mg/kg,ip administrated daily for 14 days by RT-qPCR analysis; type: functional, organism-based; conditions: time 14.0 day
4T1 [24] = assay: Antitumor activity against mouse 4T1 cells implanted in BALB/C mouse assessed as upregulation of DDX58 gene expression at 25 mg/kg,ip administrated daily for 14 days by RT-qPCR analysis; type: functional, organism-based; conditions: time 14.0 day
MCF7 [25] = assay: Synergistic antiproliferative activity against human MCF7 cells assessed as downregulation of N-Myc gene expression at 2.5 uM incubated for 6 hrs in presence of fulvestrant by RT-qPCR analysis; type: functional, cell-based
4T1 [26] = assay: Potentiation of etoposide induced antiproliferative activity against mouse 4T1 cells assessed as upregulation of ISG15 gene expression at 2.5 uM in presence of etoposide by RT-qPCR analysis; type: functional, cell-based
MCF7 [27] = assay: Synergistic antiproliferative activity against human MCF7 cells assessed as downregulation of CCND1 gene expression at 2.5 uM incubated for 6 hrs in presence of tamoxifen by RT-qPCR analysis; type: functional, cell-based
MCF7 [28] = assay: Antitumor activity against human MCF7 cells xenografted in BALB/C mouse assessed as downregulation of FOXC1 gene expression at 25 mg/kg,ip administrated every other day for 29 days by RT-qPCR analysis; type: functional, organism-based; conditions: time 29.0 day
MCF7 [29] = assay: Antitumor activity against human MCF7 cells xenografted in BALB/C mouse assessed as upregulation of IFIT1 gene expression at 25 mg/kg,ip administrated every other day for 29 days by RT-qPCR analysis; type: functional, organism-based; conditions: time 29.0 day
[30] = Toxicity in BALB/C mouse xenografted with human MCF7 cells assessed as change in lung morphology at 50 mg/kg,ip administrated every other day for 29 days; type: organism-based; conditions: in vivo, 696 h, time 29 day
4T1 [31] = assay: Antitumor activity against mouse 4T1 cells implanted in BALB/C mouse assessed as upregulation of IFNalpha gene expression at 25 mg/kg,ip administrated daily for 14 days by RT-qPCR analysis; type: functional, organism-based; conditions: time 14.0 day

Cc1ccc(-c2nc(N3CCN(CCN(C)C)CC3)ncc2-c2ccoc2)cc1.Cl.Cl
2130 nM: EC50 (BT-474)
active: Activity (MCF7 [1]) | Activity (MCF7 [4]) | Activity (MCF7 [5]) | Activity (MCF7 [6]) | Activity (4T1 [7]) | Activity (MCF7 [9]) | Activity (MCF7 [10]) | Activity (MCF7 [11]) | Activity (MCF7 [12]) | Activity (4T1 [13]) | Activity (MCF7 [14]) | Activity (MCF7 [15]) | Activity (4T1 [17]) | Activity (MCF7 [18]) | Activity (MCF7 [20]) | Activity (MCF7 [21]) | Activity (4T1 [23]) | Activity (4T1 [24]) | Activity (MCF7 [25]) | Activity (4T1 [26]) | Activity (MCF7 [27]) | Activity (MCF7 [28]) | Activity (MCF7 [29]) | Activity (4T1 [31])
Non-Toxic: Activity [2] | Activity [3] | Activity [8] | Activity [16] | Activity [19] | Activity [22] | Activity [30]
